Several values for one entry are separate records, joined by “and”; a condition that tells them apart may be missing. Identical values can stand only once.
How the values were obtained:
[1] = biological target: purified nuclear histone deacetylase; details: Calf thymus, reference 2; cited from earlier work
HDAC [2] = details: cited from earlier work; for IC50: read-out: IC50 (HDAC inhibition)
HDAC [3] = details: HDAC inhibitors in rats; cited from earlier work
HDAC (293T cells) = test system: T1, HDAC (293T cells); details: 293T cells-HDAC assay; reference 6; cited from earlier work
T1 construct: IC50; other: 293T cells-HDAC assay

NMDAR = test: Whole cell voltage clamp of isolated DGCs, response to NMDA, after in vivo HDAC inhibitor treatment; set-up: species or system rats; details: for increase of DGC NMDAR current densities in control rats: treated control vs control (VPA) or control+vehicle (TSA)
AMPAR = test: Whole cell voltage clamp of isolated DGCs, response to kainate + cyclothiazide, after in vivo HDAC inhibitor treatment; set-up: species or system rats
GABAR = test: Whole cell voltage clamp of isolated dentate granule cells (DGCs), response to GABA, after in vivo HDAC inhibitor treatment; set-up: species or system rats
[4] = test system: HeLa cell nuclear extract HDACs; details: Enhances histone acetylation in HeLa cell nuclear extract; reference 4; cited from earlier work
[5] = test system: rats post pilocarpine-induced status epilepticus; test: Chronic epilepsy monitoring (video) after pilocarpine-induced SE; format: in vivo; details: TSA injected three times, 2 hr, 6 hr and 24 hr post SE; seven weeks monitoring; vs vehicle
Description: Trichostatin A (TSA) administration. TSA was administered in the lateral ventricle {−0.8 mm A-P; 1.5 LAT; 3.2 DOWN (Paxinos and Watson 1982)} one hour prior to pilocarpine injection to induce SE. The cannula guide had been previously implanted using stereotaxic surgery two weeks prior to experiment to allow animals properly recovery. TSA (5 μl) was delivered via tubing connected to a pump at a concentration of 5 μg/ml (vehicle, 0.9% saline) at a rate of 1 μl/min for 5 minutes through 29-gauge tubing attached to the cannula. Successful delivery of TSA was verified by histological examination of cannula position and a moving mark inside the tubing. In additional studies (FIGS. 5 and 6), TSA was administered I.P., 2, 6, and 24 hrs post SE.
Pilocarpine-induced status epilepticus. Rats were injected with (−) scopolamine methyl nitrate (1 mg/kg body weight, s.c.) 30 min prior to pilocarpine hydrochloride (405 mg/kg body weight, s.c.). Controls received a sub-convulsive dosage of pilocarpine (40 mg/kg, s.c.). After one hour of SE, diazepam was used to stop SE.
Chronic epilepsy monitoring in TSA treatment. […] This effect lasted for at least 5-7 days, during which time animals had no behavioral seizures (latent period). Animals sequentially developed spontaneous seizures (epilepsy). […] Animals were video monitored for 7 weeks post SE, and the frequency and severity of seizures was quantified.

[6] = control rats, VPA in drinking water
[7] = DGCs 1 Wk post SE, VPA study (FIG. 2B)
[8] = DGCs 1 Wk post SE, TSA in the lateral ventricle
[9] = control rats, TSA in the lateral ventricle

Structure (SMILES): CCCC(=O)[O-].[Na+] [Sodium Butyrate, Sodium butyrate]
- IC50 [1]: 250 µM
- IC50 (HDAC [2]): 1500 µM
- EC50 (HDAC [3]): 200 to 500 µM
- IC50 (HDAC (293T cells)): 300 to 400 µM

Structure (SMILES): CCCC(CCC)C(=O)[O-].[Na+] [VPA, 2-propyl-pentanoic acid-sodium salt]
- IC50 (HDAC [2]): 400 µM
- NMDAR Desensitization % (NMDAR; DGCs 1 Wk post SE): 43.9 ± 2.7 (n = 61) %
- NMDAR Desensitization tau (NMDAR; DGCs 1 Wk post SE): 768.6 ± 51.1 (n = 51) Msec
- NMDAR Current density (NMDAR; DGCs 1 Wk post SE, NMDA 100 μM, Mg-free): 74.0 ± 9.5 (n = 62) Pa/pF
- NMDAR current densities (NMDAR; control rats + VPA (FIG. 4)): 102.1±17.5 pA/pF
- NMDAR Charge transfer density (NMDAR; [6]): 123.2 ± 18.0 (n = 25) (msec) × (nA)/(pF)
- NMDAR Desensitization % (NMDAR; [6]): 35.6 ± 4.6 (n = 25) %
- NMDAR Desensitization tau (NMDAR; [6]): 669.8 ± 77.3 (n = 21) Msec
- increase of DGC NMDAR current densities in control rats (NMDAR): 49.9%
- AMPAR Charge transfer density (AMPAR; DGCs 1 Wk post SE): 459.8 ± 30.8 (n = 66) (msec) × (nA)/(pF)
- effect on reduced AMPAR function / current densities (AMPAR; DGCs 1 Wk post SE): partially restore
- AMPAR Charge transfer density (AMPAR; [6]): 780.4 ± 53.3 (n = 26) (msec) × (nA)/(pF)
- GABAR Charge transfer density (GABAR; DGCs 1 Wk post SE): 217.0 ± 16.4 (n = 73) (msec) × (nA)/(pF)
- GABAR Desensitization % (GABAR; DGCs 1 Wk post SE): 76.5 ± 2.1 (n = 73) %
- GABAR current densities (GABAR; [7]): 234.6±12.7 pA/pF
- GABAR Current density (GABAR; DGCs 1 Wk post SE, GABA 1 mM): 234.6 ± 12.7 (n = 74) Pa/pF
- GABAR current densities (GABAR; control rats + VPA (FIG. 2B)): 243.04±19.25 pA/pF
- GABAR Charge transfer density (GABAR; [6]): 239.8 ± 27.8 (n = 22) (msec) × (nA)/(pF)
- GABAR Current density (GABAR; control rats, VPA in drinking water 1.0 g/kg daily, GABA 1 mM): 243.0 ± 19.3 (n = 22) Pa/pF
- GABAR Desensitization % (GABAR; control rats, VPA in drinking water, 2-second agonist application): 70.3 ± 4.2 (n = 22) %
- EC50 (HDAC [3]): 300 to 700 µM
- IC50 (HDAC (293T cells)): 700 to 1000 µM
- Ki [4]: 510 µM

Structure (SMILES): CCCC(CCC)C(N)=O [VPM, valpromide]
- NMDAR Charge transfer density (NMDAR; DGCs 1 Wk post SE): 180.0 ± 22.4 (n = 26) (msec) × (nA)/(pF)
- NMDAR Desensitization % (NMDAR; DGCs 1 Wk post SE): 46.7 ± 4.5 (n = 25) %
- NMDAR Desensitization tau (NMDAR; DGCs 1 Wk post SE): 787.8 ± 131.5 (n = 23) Msec
- NMDAR current densities (NMDAR; DGCs 1 Wk post SE, VPA study (FIG. 4)): 141.1±17.3 pA/pF
- AMPAR Charge transfer density (AMPAR; DGCs 1 Wk post SE): 615.3 ± 42.3 (n = 27) (msec) × (nA)/(pF)
- AMPAR current densities (AMPAR; DGCs 1 Wk post SE, VPA study (FIG. 3)): 302.5±20.2 pA/pF
- GABAR Charge transfer density (GABAR; DGCs 1 Wk post SE): 249.5 ± 41.5 (n = 26) (msec) × (nA)/(pF)
- GABAR Desensitization % (GABAR; DGCs 1 Wk post SE): 77.3 ± 2.7 (n = 27) %
- GABAR current densities (GABAR; [7]): 218.63±33.2 pA/pF
- GABAR Current density (GABAR; DGCs 1 Wk post SE, GABA 1 mM): 218.6 ± 33.2 (n = 30) Pa/pF

Structure (SMILES): CC(/C=C/C(=O)NO)=C\[C@@H](C)C(=O)c1ccc(N(C)C)cc1 [TSA, Trichostatin A]
- IC50 / working range (HDAC inhibition) (HDAC [2]; in vitro): nM affinity range
- effect on NMDAR current density (NMDAR; DGCs 1 Wk post SE, TSA i.p. post SE (FIG. 6)): no significant effect
- NMDAR Charge transfer density (NMDAR; [8]): 153.7 ± 16.6 (n = 31) (msec) × (nA)/(pF)
- NMDAR Current density (NMDAR; [8]): 117.3±16.0 pA/pF and 117.3 ± 16.0 (n = 31) pA/pF
- NMDAR Desensitization % (NMDAR; [8]): 38.5 ± 3.5 (n = 31) %
- NMDAR Desensitization tau (NMDAR; [8]): 1222.1 ± 173.8 (n = 28) msec
- NMDAR Charge transfer density (NMDAR; [9]): 196.2 ± 14.4 (n = 39) (msec) × (nA)/(pF)
- NMDAR Desensitization % (NMDAR; [9]): 27.1 ± 2.2 (n = 39) %
- NMDAR Desensitization tau (NMDAR; [9]): 1262.6 ± 197.5 (n = 37) msec
- NMDAR Current density (NMDAR; control rats, TSA in the lateral ventricle, NMDA 100 μM, Mg-free): 121.0±9.0 pA/pF and 121.0 ± 9.0 (n = 39) pA/pF
- increase of DGC NMDAR current densities in control rats (NMDAR): 83.1%
- increase of AMPAR current densities in control rats (AMPAR; Control+TSA vs Control+vehicle): 43.8%
- effect on reduced AMPAR function / current densities (AMPAR; DGCs 1 Wk post SE): totally prevented
- AMPAR Charge transfer density (AMPAR; [8]): 703.3 ± 49.9 (n = 33) (msec) × (nA)/(pF)
- AMPAR Charge transfer density (AMPAR; [9]): 907.6 ± 57.7 (n = 41) (msec) × (nA)/(pF)
- GABAR Current density (GABAR; DGCs 1 Wk post SE, 1-hr post SE TSA i.p. injection (FIG. 6)): 235.1±62.3 pA/pF
- GABAR Charge transfer density (GABAR; [8]): 185.9 ± 18.4 (n = 30) (msec) × (nA)/(pF)
- GABAR Desensitization % (GABAR; [8]): 83.1 ± 2.0 (n = 30) %
- GABAR Current density (GABAR; DGCs 1 Wk post SE, TSA in the lateral ventricle one hour prior to pilocarpine, GABA 1 mM): 225.6±17.3 pA/pF and 225.6 ± 17.3 (n = 32) pA/pF
- GABAR Charge transfer density (GABAR; [9]): 169.7 ± 14.2 (n = 37) (msec) × (nA)/(pF)
- GABAR Desensitization % (GABAR; [9]): 83.8 ± 1.5 (n = 36) %
- GABAR Current density (GABAR; control rats, TSA in the lateral ventricle, GABA 1 mM): 217.9±12.8 pA/pF and 217.9 ± 12.8 (n = 36) pA/pF
- reduction of average spontaneous seizure frequency [5]: more than 70%
- EC50 (HDAC [3]): 0.05 to 0.5 µM

Source: US20050075282A1, “Materials and methods for inhibiting the development of epilepsy” (priority 2003, published 2005)
